Laboratory results published in ChEMBL document CHEMBL4011590, “Structure-activity relationship studies on 3,5-dinitrophenyl tetrazoles as antitubercular agents” (Eur J Med Chem, 2017).
Values after ≈ are worked out from the molar mass of the structure shown.

How the values were obtained:
[1] = tested on: Klebsiella pneumoniae; test: Antibacterial activity against extended spectrum beta-lactamase producing Klebsiella pneumoniae HK14368/08 after 48 hrs by broth microdilution method; type: functional; conditions: HK14368/08, 48 h
[2] = tested on: Mycobacterium kansasii; test: Antimycobacterial activity against Mycobacterium kansasii CNCTC My 235/80 after 14 days by micromethod; type: functional; conditions: CNCTC My 235/80, 336 h
[3] = tested on: Candida albicans; test: Antifungal activity against Candida albicans ATCC 44859 after 24 hrs by broth microdilution method; type: functional; conditions: ATCC 44859, 24 h
[4] = tested on: Candida albicans; test: Antifungal activity against Candida albicans ATCC 44859 after 48 hrs by broth microdilution method; type: functional; conditions: ATCC 44859, 48 h
[5] = tested on: Escherichia coli; test: Antibacterial activity against Escherichia coli ATCC 8739 after 24 hrs by broth microdilution method; type: functional; conditions: ATCC 8739, 24 h
[6] = tested on: Mycobacterium kansasii; test: Antimycobacterial activity against Mycobacterium kansasii isolate 6509/96 after 7 days by micromethod; type: functional; conditions: isolate 6509/96, 168 h
[7] = tested on: Staphylococcus epidermidis; test: Antibacterial activity against Staphylococcus epidermidis HK6966/08 after 24 hrs by broth microdilution method; type: functional; conditions: HK6966/08, 24 h
[8] = tested on: Trichophyton mentagrophytes; test: Antifungal activity against Trichophyton mentagrophytes 445 after 120 hrs by broth microdilution method; type: functional; conditions: Trichophyton mentagrophytes, 445, 120 h
[9] = tested on: Klebsiella pneumoniae; test: Antibacterial activity against Klebsiella pneumoniae HK11750/08 after 24 hrs by broth microdilution method; type: functional; conditions: HK11750/08, 24 h
[10] = tested on: Klebsiella pneumoniae; test: Antibacterial activity against Klebsiella pneumoniae HK11750/08 after 48 hrs by broth microdilution method; type: functional; conditions: HK11750/08, 48 h
[11] = tested on: Mycobacterium kansasii; test: Antimycobacterial activity against Mycobacterium kansasii isolate 6509/96 after 14 days by micromethod; type: functional; conditions: isolate 6509/96, 336 h
[12] = tested on: CHO-K1; test: Cytotoxicity against CHOK1 cells after 24 hrs by MTT assay; type: cell-based; conditions: Cricetulus griseus, CHO-K1, 24 h
[13] = tested on: Mycobacterium tuberculosis; test: Antimycobacterial activity against Mycobacterium tuberculosis H37Rv CNCTC My 331/88 after 14 days by micromethod; type: functional; conditions: H37Rv CNCTC My 331/88, 336 h
[14] = tested on: Pichia kudriavzevii; test: Antifungal activity against Candida krusei E28 after 24 hrs by broth microdilution method; type: functional; conditions: E28, 24 h
[15] = tested on: Pseudomonas aeruginosa; test: Antibacterial activity against Pseudomonas aeruginosa ATCC 9027 after 24 hrs by broth microdilution method; type: functional; conditions: ATCC 9027, 24 h
[16] = tested on: Aspergillus fumigatus; test: Antifungal activity against Aspergillus fumigatus 231 after 48 hrs by broth microdilution method; type: functional; conditions: Aspergillus fumigatus, 231, 48 h
[17] = tested on: Mycobacterium avium; test: Antimycobacterial activity against Mycobacterium avium CNCTC My 330/80 after 21 days by micromethod; type: functional; conditions: CNCTC My 330/80, 504 h
[18] = tested on: Nakaseomyces glabratus; test: Antifungal activity against Candida glabrata 20/I after 48 hrs by broth microdilution method; type: functional
[19] = tested on: Klebsiella pneumoniae; test: Antibacterial activity against extended spectrum beta-lactamase producing Klebsiella pneumoniae HK14368/08 after 24 hrs by broth microdilution method; type: functional; conditions: HK14368/08, 24 h
[20] = tested on: Enterococcus sp.; test: Antibacterial activity against Enterococcus sp. HK14365/08 after 48 hrs by broth microdilution method; type: functional; conditions: HK14365/08, 48 h
[21] = tested on: Staphylococcus aureus; test: Antibacterial activity against Staphylococcus aureus ATCC 6538 after 24 hrs by broth microdilution method; type: functional; conditions: ATCC 6538, 24 h
[22] = tested on: Escherichia coli; test: Antibacterial activity against Escherichia coli ATCC 8739 after 48 hrs by broth microdilution method; type: functional; conditions: ATCC 8739, 48 h
[23] = tested on: Mycobacterium avium; test: Antimycobacterial activity against Mycobacterium avium CNCTC My 330/80 after 14 days by micromethod; type: functional; conditions: CNCTC My 330/80, 336 h
[24] = tested on: Aspergillus fumigatus; test: Antifungal activity against Aspergillus fumigatus 231 after 24 hrs by broth microdilution method; type: functional; conditions: Aspergillus fumigatus, 231, 24 h
[25] = tested on: Pseudomonas aeruginosa; test: Antibacterial activity against Pseudomonas aeruginosa ATCC 9027 after 48 hrs by broth microdilution method; type: functional; conditions: ATCC 9027, 48 h
[26] = tested on: Trichophyton mentagrophytes; test: Antifungal activity against Trichophyton mentagrophytes 445 after 72 hrs by broth microdilution method; type: functional; conditions: Trichophyton mentagrophytes, 445, 72 h
[27] = tested on: Trichosporon asahii; test: Antifungal activity against Trichosporon asahii 1188 after 48 hrs by broth microdilution method; type: functional; conditions: Trichosporon asahii, 1188, 48 h
[28] = tested on: Mycobacterium tuberculosis; test: Antimycobacterial activity against Mycobacterium tuberculosis H37Rv CNCTC My 331/88 after 21 days by micromethod; type: functional; conditions: H37Rv CNCTC My 331/88, 504 h
[29] = tested on: Enterococcus sp.; test: Antibacterial activity against Enterococcus sp. HK14365/08 after 24 hrs by broth microdilution method; type: functional; conditions: HK14365/08, 24 h
[30] = tested on: Staphylococcus aureus; test: Antibacterial activity against methicillin-resistant Staphylococcus aureus HK5996/08 after 48 hrs by broth microdilution method; type: functional; conditions: HK5996/08, 48 h
[31] = tested on: Lichtheimia corymbifera; test: Antifungal activity against Absidia corymbifera 272 after 24 hrs by broth microdilution method; type: functional; conditions: Lichtheimia corymbifera, 272, 24 h
[32] = tested on: Nakaseomyces glabratus; test: Antifungal activity against Candida glabrata 20/I after 24 hrs by broth microdilution method; type: functional
[33] = tested on: Candida tropicalis; test: Antifungal activity against Candida tropicalis 156 after 24 hrs by broth microdilution method; type: functional; conditions: Candida tropicalis, 156, 24 h
[34] = tested on: Trichosporon asahii; test: Antifungal activity against Trichosporon asahii 1188 after 24 hrs by broth microdilution method; type: functional; conditions: Trichosporon asahii, 1188, 24 h
[35] = tested on: Staphylococcus epidermidis; test: Antibacterial activity against Staphylococcus epidermidis HK6966/08 after 48 hrs by broth microdilution method; type: functional; conditions: HK6966/08, 48 h
[36] = tested on: Staphylococcus aureus; test: Antibacterial activity against methicillin-resistant Staphylococcus aureus HK5996/08 after 24 hrs by broth microdilution method; type: functional; conditions: HK5996/08, 24 h
[37] = tested on: Mycobacterium kansasii; test: Antimycobacterial activity against Mycobacterium kansasii CNCTC My 235/80 after 21 days by micromethod; type: functional; conditions: CNCTC My 235/80, 504 h
[38] = tested on: Lichtheimia corymbifera; test: Antifungal activity against Absidia corymbifera 272 after 48 hrs by broth microdilution method; type: functional; conditions: Lichtheimia corymbifera, 272, 48 h
[39] = tested on: Candida tropicalis; test: Antifungal activity against Candida tropicalis 156 after 48 hrs by broth microdilution method; type: functional; conditions: Candida tropicalis, 156, 48 h
[40] = tested on: Mycobacterium kansasii; test: Antimycobacterial activity against Mycobacterium kansasii isolate 6509/96 after 21 days by micromethod; type: functional; conditions: isolate 6509/96, 504 h
[41] = tested on: Mycobacterium kansasii; test: Antimycobacterial activity against Mycobacterium kansasii CNCTC My 235/80 after 7 days by micromethod; type: functional; conditions: CNCTC My 235/80, 168 h
[42] = tested on: Staphylococcus aureus; test: Antibacterial activity against Staphylococcus aureus ATCC 6538 after 48 hrs by broth microdilution method; type: functional; conditions: ATCC 6538, 48 h
[43] = tested on: Pichia kudriavzevii; test: Antifungal activity against Candida krusei E28 after 48 hrs by broth microdilution method; type: functional; conditions: E28, 48 h

SMILES: O=[N+]([O-])c1cc(-c2nnn(CSc3nnnn3-c3ccc(Cl)cc3)n2)cc([N+](=O)[O-])c1
- MIC [1]: > 125 µM
- MIC99 [2]: 1 µM (≈ 0.461 µg/mL)
- MIC [3]: > 125 µM
- MIC [4]: > 125 µM
- MIC [5]: > 125 µM
- MIC99 [6]: 0.25 µM (≈ 0.115 µg/mL)
- MIC [7]: 125 µM (≈ 57.6 µg/mL)
- MIC [8]: > 125 µM
- MIC [9]: > 125 µM
- MIC [10]: > 125 µM
- MIC99 [11]: 0.5 µM (≈ 0.23 µg/mL)
- IC50 [12]: 14 µM
- MIC99 [13]: 0.03 µM (≈ 0.0138 µg/mL)
- MIC [14]: > 125 µM
- MIC [15]: > 125 µM
- MIC [16]: > 125 µM
- MIC99 [17]: 4 µM (≈ 1.84 µg/mL)
- MIC [18]: > 125 µM
- MIC [19]: > 125 µM
- MIC [20]: > 125 µM
- MIC [21]: > 125 µM
- MIC [22]: > 125 µM
- MIC99 [23]: 2 µM (≈ 0.922 µg/mL)
- MIC [24]: > 125 µM
- MIC [25]: > 125 µM
- MIC [26]: > 125 µM
- MIC [27]: > 125 µM
- MIC99 [28]: 0.03 µM (≈ 0.0138 µg/mL)
- MIC [29]: 125 µM (≈ 57.6 µg/mL)
- MIC [30]: > 125 µM
- MIC [31]: > 125 µM
- MIC [32]: > 125 µM
- MIC [33]: > 125 µM
- MIC [34]: > 125 µM
- MIC [35]: > 125 µM
- MIC [36]: > 125 µM
- MIC99 [37]: 2 µM (≈ 0.922 µg/mL)
- MIC [38]: > 125 µM
- MIC [39]: > 125 µM
- MIC99 [40]: 0.5 µM (≈ 0.23 µg/mL)
- MIC99 [41]: 0.5 µM (≈ 0.23 µg/mL)
- MIC [42]: > 125 µM
- MIC [43]: > 125 µM
